Measured values taken from US20180243421A1, “IMMUNOSTIMULATING AGENT” (AJINOMOTO CO., INC., priority 2015, published 2018).

Key:
[1] = tested on: anti-OVA-specific IgG1 subclass antibody; assay: Adjuvant activity after primary immunization: anti-OVA-specific IgG1 subclass antibody in serum (Examples 13-18); assay type: in vivo, BALB/c mice; conditions: OVA 5 μg + 0.256 μmol in 5% αCD saline s.c., serum after 12 days
Procedure: 8-Week-old female BALB/c mice were divided into groups (N=6), and each group was primarily immunized by dorsal-subcutaneous administration of (1) ovalbumin (OVA) (5 μg) dissolved in saline as an antigen (OVA single administration group), (2) OVA (5 μg) and SZ83 (0.256 μmol) dissolved or dispersed in 5% αCD-added saline (SZ83 administration group), (3) OVA (5 μg) and SZ84 (0.256 μmol) dissolved or dispersed in 5% αCD-added saline (SZ84 administration group), (4) OVA (5 μg) and SZ86 (0.256 μmol) dissolved or dispersed in 5% αCD-added saline (SZ86 administration group), (5) OVA (5 μg) and SZ89 (0.256 μmol) dissolved or dispersed in 5% αCD-added saline (SZ89 administration group), (6) OVA (5 μg) and SZ90 (0.256 μmol) dissolved or dispersed in 5% αCD-added saline (SZ90 administration group), each per mouse. After 12 days, blood samples were collected under anesthesia, and the obtained serum samples were subjected to the measurement of an anti-OVA-specific IgG1 subclass antibody.
(§1) Measurement Method of Concentration of anti-OVA-specific IgG1 Subclass Antibody and anti-OVA-specific IgG2a Subclass Antibody
(§2) To a 96 well plate was added 5 μg/ml OVA at 100 μl/well, and the mixture was incubated at 4° C. overnight. After incubation, the mixture was washed three times with 200 μl of PBS-T (PBS+0.05% (v/v) Tween 20) per well, and blocked with 100 μl of 5% FCS/PBS solution per well at room temperature for 1 to for 2 hr. Thereafter, the mixture was washed three times with PBS-T (200 μl/well), a diluted serum sample (100 μl/well) or the same amount of 5% FCS/PBS solution as a control was added, to and the mixture was incubated at 37° C. for 1 hr. To calculate concentration of the antibody, the standard of an anti-OVA-specific IgG1 subclass antibody diluted with 2% FCS/PBS solution was added at 100 ng/ml, 50 ng/ml, 25 ng/ml, 12.5 ng/ml, 6.25 ng/ml, 3.125 ng/ml, 1.56 ng/ml, 0.781 ng/ml, 0.391 ng/ml, 0.195 ng/ml, 0.098 ng/ml, 0 ng/ml, per 1 well. When an anti-OVA-specific IgG2a subclass antibody was measured, the standard of an anti-OVA-specific IgG2a subclass antibody was added at 50 ng/ml, 25 ng/ml, 12,5 ng/ml, 6.25 ng/ml, 3.125 ng/ml, 1.56 ng/ml, 0.781 ng/ml, 0.391 ng/ml, 0.195 ng/ml, 0.098 ng/ml, 0.049 ng/ml, 0 ng/ml, per 1 well. […] Thereafter, the mixture was washed five times with PBS-T (200 μl/well), a diluted anti-biotin-HRP antibody was added (100 μl/well), and the mixture was incubated at 37° C. for another 30 min. Thereafter, the mixture was washed five times with PBS-T (200 μl/well), TMB substrate solution was added (100 μl/well), and the mixture was incubated at room temperature for 10- for 15 min. Thereafter, a reaction quenching liquid (2N sulfuric acid solution) was added (50 μl/well) to discontinue a color developing reaction, and the absorbance (OD Value=450 nm) was measured by a microplate reader. A standard curve was drawn from the measured OD values, and the concentration was calculated.
8-Week-old female BALB/c mice were divided into groups (N=6), and each group was primarily immunized by dorsal-subcutaneous administration of (1) ovalbumin (OVA) (5 μg) dissolved in saline as an antigen (OVA single administration group), (2) OVA (5 μg) and SZ92 (0.256 μmol) dissolved or dispersed in 5% αCD-added saline (SZ92 administration group), (3) OVA (5 μg) and SZ94 (0.256 μmol) dissolved or dispersed in 5% αCD-added saline (SZ94 administration group), (4) OVA (5 μg) and SZ95 (0.256 μmol) dissolved or dispersed in 5% αCD-added saline (SZ95 administration group), (5) OVA (5 μg) and SZ96 (0.256 μmol) dissolved or dispersed in 5% αCD-added saline (SZ96 administration group), each per mouse. After 12 days, blood samples were collected under anesthesia, and the obtained serum samples were subjected to the measurement of anti-OVA-specific IgG1 subclass antibody.

[2] = tested on: anti-OVA-specific IgG1 subclass antibody; assay: Adjuvant activity: anti-OVA-specific IgG1 subclass antibody in serum after secondary immunization (Examples 12, 19, 20, 21); assay type: in vivo, BALB/c mice; conditions: two weeks from secondary immunization
Procedure: 8-Week-old female BALB/c mice were divided into groups (N=6), and each group was primarily immunized by dorsal-subcutaneous administration of (1) ovalbumin (OVA) (5 μg) dissolved in saline as an antigen (OVA single administration group), (2) OVA (5 μg) added to 5% αCD-added saline, (3) OVA (5 μg) added to 10% HP-β-CD-added saline, (4) OVA (5 μg) and SZ62 (0.256 μmol) dissolved or dispersed in 5% αCD-added saline, and (5) OVA (5 μg) and SZ62 (0.256 μmol) dissolved in 10% HP-β-CD-added saline, each per mouse. One week later, the secondary immunization was carried out by dorsal-subcutaneous administration of solutions or dispersions similar to those of the above-mentioned (1) to (5) again. Two weeks from the secondary immunization, the blood was extracted under anesthesia, and the obtained serum samples were measured for anti-OVA-specific IgG1 subclass antibody.
as §1, §2
8-Week-old female BALB/c mice were divided into groups (N=6), and each group was primarily immunized by dorsal-subcutaneous administration of (1) ovalbumin (OVA) (5 μg) dissolved in saline as an antigen (OVA single administration group), (2) OVA 10 μg and Addavax™ (mixed with saline at 1:1) dissolved in saline (Addavax™ administration group), (3) OVA (5 μg) and SZ86 (0.256 μmol) dissolved or dispersed in 5% αCD-added saline (SZ86 administration group), (4) OVA (5 μg) and SZ90 (0.256 μmol) dissolved or dispersed in 5% αCD-added saline (SZ90 administration group), (5) OVA (5 μg) and SZ92 (0.256 μmol) dissolved or dispersed in 5% αCD-added saline (SZ92 administration group), (6) OVA (5 μg) and SZ99 (0.256 μmol) dissolved or dispersed in 5% αCD-added saline (SZ99 administration group), (7) OVA (5 μg) and SZ106 (0.256 μmol) dissolved or dispersed in 5% αCD-added saline (SZ106 administration group), each per mouse. One week later, the secondary immunization was carried out by dorsal-subcutaneous administration of solutions or dispersions similar to those of the above-mentioned (1)-(7) again.

[3] = Example 20, OVA 5 μg + 0.256 μmol in 5% αCD saline s.c. (Addavax 1:1 with OVA 10 μg)
[4] = Example 19, OVA 5 μg + 0.256 μmol in 5% αCD saline s.c. (Addavax 1:1 with OVA 10 μg)

Compound | anti-OVA-specific IgG1 subclass antibody production as compared to the OVA single administration group [2, 3] | anti-OVA-specific IgG1 subclass antibody production as compared to the OVA single administration group [2, 4] | anti-OVA-specific IgG1 subclass antibody production after primary immunization as compared to the OVA single administration group ([1]; Example 15) | further results
CCCCCCCCCCCCCCCCCCCCCC(=O)NC(=N)NCCCCN.Cl [SZ108, N-docosanoylagmatine hydrochloride salt] | tended to increase |  |  | anti-OVA-specific IgG1 subclass antibody production after primary immunization as compared to the OVA single administration group ([1]; Example 16): significantly increased
CCCCCCCCCCCCCCCC(=O)N[C@@H](CC(C)C)C(=O)N(CC)CC [SZ92, N^2-hexadecanoyl-N^1,N^1-diethyl-L-leucinamide] | significantly increased | significantly increased |  | anti-OVA-specific IgG1 subclass antibody production after primary immunization as compared to the OVA single administration group ([1]; Example 14): significantly increased
CCCCCCCCCCCCCCCC(=O)N[C@@H](CCCNC(=N)N)C(=O)OCCCCCC.Cl [SZ99, N^2-hexadecanoyl-L-arginine hexyl ester hydrochloride salt] |  | tended to increase | significantly increased | 
CCCCCCCCCCCCCCCC(=O)NC(=N)NCCCCN [SZ62, N-hexadecanoylagmatine] |  |  |  | anti-OVA-specific IgG1 subclass antibody production as compared to the OVA single administration group ([2]; Example 12, SZ62 0.256 μmol dispersed in 5% αCD-added saline, OVA 5 μg s.c.): significantly increased; anti-OVA-specific IgG1 subclass antibody production as compared to the OVA single administration group ([2]; Example 12, SZ62 0.256 μmol dissolved in 10% HP-β-CD-added saline, OVA 5 μg s.c.): significantly increased
CCCCCCCCCCCCCCCC(=O)N[C@@H](CC(C)C)C(=O)OCCCCCC [SZ97, N-hexadecanoyl-L-leucine hexyl ester] | significantly increased |  | show a tendency to increase | 
CCCCCCCCCCCCCCCCCCC(CCCCCCCCCCCCCCCCCC)C(=O)N[C@@H](CC(C)C)C(=O)OC [SZ86, N-(2-octadecyleicosanoyl)-L-leucine methyl ester] | tended to increase | tended to increase |  | anti-OVA-specific IgG1 subclass antibody production after primary immunization ([1]; Example 13): show a tendency to increase
CCCCCCCCCCCCCCCCCCCCCC(=O)N[C@@H](CCC(=O)O)C(=O)N(CC)CC [SZ106, N^2-docosanoyl-N^1,N^1-diethyl-L-glutamic acid 1-amide] | tended to increase | tended to increase | show a tendency to increase | 
